Source: patent EP3922268B1, “NEW DERIVATIVES OBTAINED FROM HYALURONIC ACID AND CARNOSINE” (Fidia Farmaceutici S.p.A., priority 2020, dated 2023)

System: HFF1 cell line (consisting of fibroblasts derived from human skin)
Experiment: MTT cell viability assay
Assay type: cell-based
Conditions: HFF1 cells, 5 hours incubation; carnosine alone 0.136 mM
Method: Trial design. The cell response of conjugate (1) in terms of cell viability was determined in vitro by performing the MTT assay (Mosmann T, J Immunol Methods 1983; 65:55-63) on the HFF1 cell line (consisting of fibroblasts derived from human skin). The cells were used at passages 20-23, cultured at 37°C and 5% CO2 in Dulbecco's Modified Eagle Medium (DMEM) with integrated glucose and added with FBS (1%). To conduct the MTT assay, the cells were plated in 96-well multiwell plates (7000 cells per well) in DMEM culture medium with integrated glucose and added with 1% FBS; after 48 hours they were treated with control medium, or with medium alternatively containing carnosine, conjugate (1) prepared as described in EXAMPLE 1, or complexes of conjugate (1) with Cu(II), for 5 hours of incubation at 37°C and 5% CO2. Each treatment was performed in triplicate. […] After removal of the liquid from each well and addition of DMSO (100 µl), the absorbance of the formazan salt (blue) produced by the cleavage reaction of the tetrazolium ring of MTT (yellow) by the mitochondrial enzyme succinate dehydrogenase present in the viable cells only was measured in a multiplate reader (Synergy™ 2 Multi-Mode Microplate Reader) at the wavelength of 570 nm. […]

For `NCCC(=O)N[C@@H](Cc1c[nH]cn1)C(=O)O` [carnosine, β-alanyl-L-histidine], the “increase in cell viability” value was “did not lead to any increase in cell viability”.
